In US10799507B2, “5-(7H-pyrrolo[2,3-d]pyrimidin-4-yl)-5-azaspiro[2.5]octane-8-carboxylic acid derivatives as novel JAK kinase inhibitors” (LEO Pharma A/S, priority 2017, dated 2020):

Legend:
[1] = in vitro metabolic stability in human liver microsomes; assay type: in vitro ADME; conditions: 0.5 μM compound, 0.5 mg/mL microsomes, NADPH, 40 min, 37° C.; for CLint scaled at 0.5 μM: human, liver microsomes, read-out: Human liver microsome Clapp (apparent intrinsic clearance)
Method: To assess the in vitro metabolic stability, the compounds (0.5 μM) were incubated in duplicates with human liver microsomes (0.5 mg/mL) in phosphate buffer and NADPH, in 96-well plates for 40 min (37° C.), using a liquid handling robot (Hamilton Microlab Star). Sample aliquots were taken at 0, 5, 10, 20 and 40 min, and dispensed into cold acetonitrile, in order to stop the reactions. The plates were centrifuged for 30 minutes before the samples were analyzed using liquid chromatography coupled to a time-of-flight mass spectrometer (AB Sciex API5600). The compound depletion over time was used to estimate the elimination rate constant, from which the apparent intrinsic clearance, Clapp, was calculated and the values are listed in Table 2.

TYK2 = TYK2 (Homo sapiens (Human), UniProt P29597); test: JAK kinase assay (HTRF), TYK2; assay type: biochemical; conditions: catalytic domain, ATP at Km (13 μM)
Method in brief: (§1)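 HTRF read-out of biotinylated TK peptide phosphorylation (1 μM) after a 20-30 min RT reaction in pH 7.0 Hepes buffer with 5 mM MgCl2 and 0.75% DMSO. JAK3 (His-tagged catalytic domain) used 2 μM ATP; TYK2 (GST-tagged, aa 871-1187) used 13 μM ATP plus 50 nM SEB, each at ATP Km.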

JAK3 = JAK3 (Homo sapiens (Human), UniProt P52333); test: JAK kinase assay (HTRF), JAK3; assay type: biochemical; conditions: catalytic domain, ATP at Km (2 μM)
Method in brief: as §1

JAK1 = JAK1 (Homo sapiens (Human), UniProt P23458); test: JAK kinase assay (HTRF), JAK1; assay type: biochemical; conditions: catalytic domain, ATP at Km (7 μM)
Method in brief: (§2)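 Catalytic-domain human JAK1 (GST-tagged, aa 850-1154) or His-tagged JAK2, baculovirus-expressed, phosphorylated 1 µM biotinylated TK peptide at Km ATP (JAK1 7 µM, 10 mM MgCl2, 50 nM SEB; JAK2 4 µM, 5 mM MgCl2) in pH 7.0 Hepes, 20-30 min RT. EDTA stop; overnight streptavidin-XL665/cryptate HTRF read.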

JAK2 = JAK2 (Homo sapiens (Human), UniProt O60674); test: JAK kinase assay (HTRF), JAK2; assay type: biochemical; conditions: catalytic domain, ATP at Km (4 μM)
Method in brief: as §2

Chain of JAK2 (O60674 849-1124): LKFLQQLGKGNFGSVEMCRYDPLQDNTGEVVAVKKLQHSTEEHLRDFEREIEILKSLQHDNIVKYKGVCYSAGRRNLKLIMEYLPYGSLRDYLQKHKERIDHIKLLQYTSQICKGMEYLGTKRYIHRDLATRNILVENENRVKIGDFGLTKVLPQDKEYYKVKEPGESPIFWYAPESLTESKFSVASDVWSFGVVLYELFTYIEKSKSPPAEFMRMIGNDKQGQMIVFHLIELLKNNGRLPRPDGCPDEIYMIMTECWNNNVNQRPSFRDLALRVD
Chain of JAK1 (P23458 850-1154): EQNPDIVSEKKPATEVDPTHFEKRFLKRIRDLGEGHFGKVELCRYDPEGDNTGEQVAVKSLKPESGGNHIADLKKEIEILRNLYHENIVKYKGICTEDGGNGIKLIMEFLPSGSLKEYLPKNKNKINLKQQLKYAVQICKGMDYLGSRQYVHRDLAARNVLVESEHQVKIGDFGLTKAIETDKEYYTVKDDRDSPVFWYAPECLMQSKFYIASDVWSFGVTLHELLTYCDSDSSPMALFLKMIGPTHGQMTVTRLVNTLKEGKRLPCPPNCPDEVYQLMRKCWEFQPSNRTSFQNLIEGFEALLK
Chain of JAK3 (P52333 822-1111): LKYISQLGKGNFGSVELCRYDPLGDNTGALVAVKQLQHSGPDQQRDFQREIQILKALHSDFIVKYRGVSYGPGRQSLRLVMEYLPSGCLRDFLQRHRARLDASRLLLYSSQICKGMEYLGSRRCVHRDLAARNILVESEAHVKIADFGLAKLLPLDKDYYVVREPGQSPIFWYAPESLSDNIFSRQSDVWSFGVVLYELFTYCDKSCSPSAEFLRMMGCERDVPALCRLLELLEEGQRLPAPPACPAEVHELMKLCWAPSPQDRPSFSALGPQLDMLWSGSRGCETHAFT
Chain of TYK2 (P29597 871-1187): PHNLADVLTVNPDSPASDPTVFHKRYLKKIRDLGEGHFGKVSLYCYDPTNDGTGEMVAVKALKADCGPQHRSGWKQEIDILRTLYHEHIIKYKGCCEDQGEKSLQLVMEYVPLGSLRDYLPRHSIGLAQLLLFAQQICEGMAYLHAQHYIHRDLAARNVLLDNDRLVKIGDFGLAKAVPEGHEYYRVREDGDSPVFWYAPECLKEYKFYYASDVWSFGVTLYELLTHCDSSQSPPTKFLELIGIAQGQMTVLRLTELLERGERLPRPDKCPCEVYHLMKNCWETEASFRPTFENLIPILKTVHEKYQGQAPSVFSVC

`C[C@@](CO)(NC(=O)[C@H]1CCN(c2ncnc3[nH]ccc23)CC12CC2)c1ccc(C#N)cc1` [Example 28, (8S)-N-[(1R)-1-(4-cyanophenyl)-2-hydroxy-1-methyl-ethyl]-5-(7H-pyrrolo[2,3-d]pyrimidin-4-yl)-5-azaspiro[2.5]octane-8-carboxamide] gave a CLint scaled at 0.5 μM [1] of 132 mL/min/kg, an EC50 (TYK2) of 55.8 nM and an EC50 (JAK3) of 9.8 nM. For the same compound, the EC50 (JAK1) was 1.4 nM and the EC50 (JAK2) was 5.5 nM.
In the case of `O=C(NC[C@H](O)C1CCOCC1)[C@H]1CCN(c2ncnc3[nH]ccc23)CC12CC2` [Example 10, (8S)-N-[(2R)-2-hydroxy-2-tetrahydropyran-4-yl-ethyl]-5-(7H-pyrrolo[2,3-d]pyrimidin-4-yl)-5-azaspiro[2.5]octane-8-carboxamide], the CLint scaled at 0.5 μM [1] is reported as 28 mL/min/kg, the EC50 (TYK2) is reported as 10.8 nM and the EC50 (JAK3) is reported as 11.7 nM. It also gave an EC50 (JAK1) of 0.8 nM and an EC50 (JAK2) of 2.9 nM.
In the case of `O=C(OCC1(CO)CC(F)(F)C1)[C@H]1CCN(c2ncnc3[nH]ccc23)CC12CC2` [Example 160, [3,3-difluoro-1-(hydroxymethyl)cyclobutyl]methyl (8S)-5-(7H-pyrrolo[2,3-d]pyrimidin-4-yl)-5-azaspiro[2.5]octane-8-carboxylate], the CLint scaled at 0.5 μM [1] is reported as 121 mL/min/kg, the EC50 (TYK2) is reported as 3.7 nM and the EC50 (JAK3) is reported as 1.8 nM. For the same compound, the EC50 (JAK1) was 0.3 nM and the EC50 (JAK2) was 0.8 nM.
In the case of `O=C(NC[C@@H](O)C1CCCC1)[C@H]1CCN(c2ncnc3[nH]ccc23)CC12CC2` [Example 1, (8S)-N-[(2S)-2-cyclopentyl-2-hydroxy-ethyl]-5-(7H-pyrrolo[2,3-d]pyrimidin-4-yl)-5-azaspiro[2.5]octane-8-carboxamide], the “Human liver microsome Clapp (apparent intrinsic clearance)” value [1] is reported as 190 mL/min/kg, the EC50 (TYK2) is reported as 3.6 nM and the EC50 (JAK3) is reported as 3.3 nM. For the same compound, the EC50 (JAK1) was 0.5 nM and the EC50 (JAK2) was 1 nM.
For `N#Cc1ccc(CNC(=O)[C@H]2CCN(c3ncnc4[nH]ccc34)CC23CC3)c(F)c1` [Example 31, (8S)-N-[(4-cyano-2-fluoro-phenyl)methyl]-5-(7H-pyrrolo[2,3-d]pyrimidin-4-yl)-5-azaspiro[2.5]octane-8-carboxamide], the CLint scaled at 0.5 μM [1] was 166 mL/min/kg, the EC50 (TYK2) was 63.7 nM and the EC50 (JAK3) was 15.6 nM. The EC50 (JAK1) was 1.4 nM and the EC50 (JAK2) was 6.4 nM.
`Cc1cc(C#N)ccc1[C@H](CO)NC(=O)[C@H]1CCN(c2ncnc3[nH]ccc23)CC12CC2` [Example 37, (8S)-N-[(1R)-1-(4-cyano-2-methyl-phenyl)-2-hydroxy-ethyl]-5-(7H-pyrrolo[2,3-d]pyrimidin-4-yl)-5-azaspiro[2.5]octane-8-carboxamide] showed a CLint scaled at 0.5 μM [1] of 91 mL/min/kg, an EC50 (TYK2) of 102 nM and an EC50 (JAK3) of 36.4 nM. It also gave an EC50 (JAK1) of 2 nM and an EC50 (JAK2) of 10.2 nM.
In the case of `C[C@H](NC(=O)[C@H]1CCN(c2ncnc3[nH]ccc23)CC12CC2)c1ccc(C#N)cc1` [Example 22, (8S)-N-[(1S)-1-(4-cyanophenyl)ethyl]-5-(7H-pyrrolo[2,3-d]pyrimidin-4-yl)-5-azaspiro[2.5]octane-8-carboxamide], the CLint scaled at 0.5 μM [1] is reported as 123 mL/min/kg, the EC50 (TYK2) is reported as 43.9 nM and the EC50 (JAK3) is reported as 7.1 nM. It also gave an EC50 (JAK1) of 1.2 nM and an EC50 (JAK2) of 3.2 nM.
`O=C(N[C@@H](CO)c1ccccc1)C1CCN(c2ncnc3[nH]ccc23)CC12CC2` (stereo partly drawn) [Example 69, N-[(1R)-2-hydroxy-1-phenyl-ethyl]-5-(7H-pyrrolo[2,3-d]pyrimidin-4-yl)-5-azaspiro[2.5]octane-8-carboxamide] showed a CLint scaled at 0.5 μM [1] of 44 mL/min/kg, an EC50 (TYK2) of 298 nM and an EC50 (JAK3) of 29.1 nM. It also gave an EC50 (JAK1) of 5.1 nM and an EC50 (JAK2) of 12 nM.
Compound `N#Cc1ccc(C(O)CNC(=O)C2CCN(c3ncnc4[nH]ccc34)CC23CC3)cc1` (stereo not shown) [Example 39, N-[2-(4-cyanophenyl)-2-hydroxy-ethyl]-5-(7H-pyrrolo[2,3-d]pyrimidin-4-yl)-5-azaspiro[2.5]octane-8-carboxamide] has a CLint scaled at 0.5 μM [1] of 186 mL/min/kg, an EC50 (TYK2) of 75.4 nM and an EC50 (JAK3) of 11.5 nM. It also gave an EC50 (JAK1) of 2.4 nM and an EC50 (JAK2) of 4.8 nM.
`O=C(N[C@@H](CO)[C@@H](O)c1ccc(F)cn1)[C@H]1CCN(c2ncnc3[nH]ccc23)CC12CC2` [Example 105, (8S)-N-[(1S,2R)-2-(5-fluoro-2-pyridyl)-2-hydroxy-1-(hydroxymethyl)ethyl]-5-(7H-pyrrolo[2,3-d]pyrimidin-4-yl)-5-azaspiro[2.5]octane-8-carboxamide] showed a CLint scaled at 0.5 μM [1] of 15 mL/min/kg, an EC50 (TYK2) of 153 nM and an EC50 (JAK3) of 56 nM. It also gave an EC50 (JAK1) of 10.2 nM and an EC50 (JAK2) of 11.2 nM.
Compound `N#CCC1(COC(=O)[C@H]2CCN(c3ncnc4[nH]ccc34)CC23CC3)CC1` [Example 163, [1-(cyanomethyl)cyclopropyl]methyl (8S)-5-(7H-pyrrolo[2,3-d]pyrimidin-4-yl)-5-azaspiro[2.5]octane-8-carboxylate] has a CLint scaled at 0.5 μM [1] of over 200 mL/min/kg, an EC50 (TYK2) of 25 nM and an EC50 (JAK3) of 13 nM. The EC50 (JAK1) was 3.1 nM and the EC50 (JAK2) was 3.8 nM.
In the case of `O=C(NCC1(O)CCC1)[C@H]1CCN(c2ncnc3[nH]ccc23)CC12CC2` [Example 68, (8S)-N-[(1-hydroxycyclobutyl)methyl]-5-(7H-pyrrolo[2,3-d]pyrimidin-4-yl)-5-azaspiro[2.5]octane-8-carboxamide], the CLint scaled at 0.5 μM [1] is reported as 23 mL/min/kg, the EC50 (TYK2) is reported as 78.1 nM and the EC50 (JAK3) is reported as 29.6 nM. The EC50 (JAK1) was 5.1 nM and the EC50 (JAK2) was 11.8 nM.
In the case of `O=C(NCC(O)C1CCCCC1)[C@H]1CCN(c2ncnc3[nH]ccc23)CC12CC2` (stereo partly drawn) [Example 2, (8S)-N-(2-cyclohexyl-2-hydroxy-ethyl)-5-(7H-pyrrolo[2,3-d]pyrimidin-4-yl)-5-azaspiro[2.5]octane-8-carboxamide], the CLint scaled at 0.5 μM [1] is reported as over 200 mL/min/kg, the EC50 (TYK2) is reported as 4.6 nM and the EC50 (JAK3) is reported as 3.7 nM. The EC50 (JAK1) was 0.5 nM and the EC50 (JAK2) was 1.3 nM.
Compound `O=C(NCC1CC(F)(F)C1)C1CCN(c2ncnc3[nH]ccc23)CC12CC2` (stereo not shown) [Example 56, N-[(3,3-difluorocyclobutyl)methyl]-5-(7H-pyrrolo[2,3-d]pyrimidin-4-yl)-5-azaspiro[2.5]octane-8-carboxamide] has a CLint scaled at 0.5 μM [1] of 63 mL/min/kg, an EC50 (TYK2) of 170 nM and an EC50 (JAK3) of 18.1 nM. For the same compound, the EC50 (JAK1) was 3.9 nM and the EC50 (JAK2) was 8.3 nM.
With `O=C(NC[C@H](O)c1ccccc1)C1CCN(c2ncnc3[nH]ccc23)CC12CC2` (stereo partly drawn) [Example 103, N-[(2R)-2-hydroxy-2-phenyl-ethyl]-5-(7H-pyrrolo[2,3-d]pyrimidin-4-yl)-5-azaspiro[2.5]octane-8-carboxamide] the CLint scaled at 0.5 μM [1] was 128 mL/min/kg, the EC50 (TYK2) was 509 nM and the EC50 (JAK3) was 40.6 nM. For the same compound, the EC50 (JAK1) was 9.9 nM and the EC50 (JAK2) was 21.4 nM.
In the case of `O=C(NC[C@@H](O)c1ccccc1)C1CCN(c2ncnc3[nH]ccc23)CC12CC2` (stereo partly drawn) [Example 63, N-[(2S)-2-hydroxy-2-phenyl-ethyl]-5-(7H-pyrrolo[2,3-d]pyrimidin-4-yl)-5-azaspiro[2.5]octane-8-carboxamide], the CLint scaled at 0.5 μM [1] is reported as over 200 mL/min/kg, the EC50 (TYK2) is reported as 147 nM and the EC50 (JAK3) is reported as 58.5 nM. It also gave an EC50 (JAK1) of 4.5 nM and an EC50 (JAK2) of 15.9 nM.
For `C[C@@](CO)(NC(=O)[C@H]1CCN(c2ncnc3[nH]ccc23)CC12CC2)c1ccc(C#N)cn1` [Example 57, (8S)-N-[(1R)-1-(5-cyano-2-pyridyl)-2-hydroxy-1-methyl-ethyl]-5-(7H-pyrrolo[2,3-d]pyrimidin-4-yl)-5-azaspiro[2.5]octane-8-carboxamide], the CLint scaled at 0.5 μM [1] was 39 mL/min/kg, the EC50 (TYK2) was 193 nM and the EC50 (JAK3) was 21.3 nM. The EC50 (JAK1) was 4.1 nM and the EC50 (JAK2) was 9 nM.
In the case of `N#CCC1(COC(=O)C2CCN(c3ncnc4[nH]ccc34)CC23CC3)CC1` (stereo not shown) [Example 164, [1-(cyanomethyl)cyclopropyl]methyl 5-(7H-pyrrolo[2,3-d]pyrimidin-4-yl)-5-azaspiro[2.5]octane-8-carboxylate], the CLint scaled at 0.5 μM [1] is reported as over 200 mL/min/kg, the EC50 (TYK2) is reported as 70 nM and the EC50 (JAK3) is reported as 19 nM. It also gave an EC50 (JAK1) of 4 nM and an EC50 (JAK2) of 5 nM.
Compound `C[C@H](NC(=O)[C@H]1CCN(c2ncnc3[nH]ccc23)CC12CC2)c1ccc(C#N)c(F)c1` [Example 14, (8S)-N-[(1S)-1-(4-cyano-3-fluoro-phenyl)ethyl]-5-(7H-pyrrolo[2,3-d]pyrimidin-4-yl)-5-azaspiro[2.5]octane-8-carboxamide] has a CLint scaled at 0.5 μM [1] of over 200 mL/min/kg, an EC50 (TYK2) of 26.8 nM and an EC50 (JAK3) of 6.5 nM. For the same compound, the EC50 (JAK1) was 0.9 nM and the EC50 (JAK2) was 2.2 nM.
`O=C(NCC1(O)CCCCC1)[C@H]1CCN(c2ncnc3[nH]ccc23)CC12CC2` [Example 74, (8S)-N-[(1-hydroxycyclohexyl)methyl]-5-(7H-pyrrolo[2,3-d]pyrimidin-4-yl)-5-azaspiro[2.5]octane-8-carboxamide] gave a CLint scaled at 0.5 μM [1] of 37 mL/min/kg, an EC50 (TYK2) of 55.7 nM and an EC50 (JAK3) of 23.2 nM. It also gave an EC50 (JAK1) of 6.1 nM and an EC50 (JAK2) of 15.3 nM.
